# Measurements published in paper PMC5658359, “A potent small-molecule inhibitor of the DCN1-UBC12 interaction that selectively blocks cullin 3 neddylation” (Nature Communications, 2017).
# “Also recorded” adds a separate entry of the source.
# Assays:
# p21, Bim, CDT1 = experiment: Western blotting of cullin 1 and 4A CRL substrates in cells; format: cell-based; conditions: western blot, 24 h
# Source text: (§1) Treated cells were lysed by RIPA buffer supplemented with protease and phosphatase inhibitors. The expression level of indicated proteins was examined by immunoblotting analysis. GAPDH was used as the loading control.
# KYSE70 = experiment: Cell viability, WST assay, KYSE70; format: cell-based; conditions: Homo sapiens, KYSE-70, 96 h; KYSE70, t = 4 d
# Procedure: (§2) Supplementary Figure 8: 1
# (§3) […] in a panel of 6 cell lines. (a) The indicated cell lines were treated with MLN4924, 4
# (§4) Cell viability was determined with a WST assay. (b) The 5
# (§5) was determined with a WST assay. 7
# [1] = tested on: neddylation of cullin 1 and other cullins; experiment: Western blotting of neddylated and un-neddylated cullin 1 and other cullins in cells; format: cell-based; conditions: for effect on neddylation of cullin 1, time course (in words): THLE2 liver cells, up to 24 h, DI-591 10 µM, MLN4924 0.3 µM
# Source text: as §1
# NRF2 = experiment: Western blotting of NRF2 protein in cells; format: cell-based; conditions: western blot, 24 h
# Source text: as §1
# THLE2 = experiment: Cell viability, WST assay, THLE2; format: cell-based; conditions: Homo sapiens, THLE-2, 96 h; THLE2, t = 4 d
# Procedure: as §2, §3, §4, §5
# [2] = tested on: THLE2 cells and five additional cancer cell lines; experiment: Cell viability, WST assay, panel of 6 cell lines; format: cell-based
# NEDD8 E1 (APP-BP1/Uba3) = biological target: T1, NEDD8 E1 (APP-BP1/Uba3) (Homo sapiens, UniProt Q8TBC4); experiment: In vitro UBC12~NEDD8 thioester forming assay; format: biochemical; conditions: DI-591 at concentrations up to 100 µM
# T1 construct: purchased Boston Biochem
# T1 sequence (Q8TBC4 1-463): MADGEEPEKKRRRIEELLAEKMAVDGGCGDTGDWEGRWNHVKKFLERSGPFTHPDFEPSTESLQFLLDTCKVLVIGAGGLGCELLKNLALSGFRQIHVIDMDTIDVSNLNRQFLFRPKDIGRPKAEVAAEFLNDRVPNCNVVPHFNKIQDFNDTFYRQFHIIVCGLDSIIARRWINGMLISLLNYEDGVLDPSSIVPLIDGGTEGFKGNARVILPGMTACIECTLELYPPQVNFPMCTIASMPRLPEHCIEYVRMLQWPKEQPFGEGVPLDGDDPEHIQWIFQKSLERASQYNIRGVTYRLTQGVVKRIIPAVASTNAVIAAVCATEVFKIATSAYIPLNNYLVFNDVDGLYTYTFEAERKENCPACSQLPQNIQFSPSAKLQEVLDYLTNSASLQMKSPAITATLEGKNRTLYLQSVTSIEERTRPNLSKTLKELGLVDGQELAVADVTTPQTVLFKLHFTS
# T1 sequence (Q13564 1-534 partner): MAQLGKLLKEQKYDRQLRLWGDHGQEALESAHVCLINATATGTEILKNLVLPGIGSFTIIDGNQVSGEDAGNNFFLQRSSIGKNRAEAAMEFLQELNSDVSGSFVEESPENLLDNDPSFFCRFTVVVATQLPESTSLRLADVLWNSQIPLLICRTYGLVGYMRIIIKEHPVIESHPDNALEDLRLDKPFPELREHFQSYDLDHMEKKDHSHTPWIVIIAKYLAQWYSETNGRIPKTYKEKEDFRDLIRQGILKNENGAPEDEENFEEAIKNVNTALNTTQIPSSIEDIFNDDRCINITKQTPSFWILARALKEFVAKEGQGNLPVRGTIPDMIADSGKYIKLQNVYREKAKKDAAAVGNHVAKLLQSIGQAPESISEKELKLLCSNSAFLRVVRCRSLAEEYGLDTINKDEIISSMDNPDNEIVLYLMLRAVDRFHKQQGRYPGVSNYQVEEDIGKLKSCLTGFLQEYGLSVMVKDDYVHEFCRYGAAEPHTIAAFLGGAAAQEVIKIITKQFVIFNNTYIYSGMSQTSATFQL
# Procedure: NEDD8, NEDD8 E1 (APP-BP1/Uba3) and UBC12 proteins were purchased from Boston Biochem. NEDD8 (10 μM), NEDD8 E1 (25 nM), and UBC12 (2 μM) were incubated in Tris-HCl (pH 7.4, 50 mM), MgCl2 (5 mM), DTT (0.5 mM) and BSA (0.1 mg/ml), with a tested compound at 25 °C for 10 min. Reactions were initiated by addition of 2 mM ATP (or distilled H2O) and ran for 5 min at 25 °C. 1 M DTT (or distilled H2O) was added to the reaction mixtures which were then kept on ice for 1 min followed by addition of SDS loading buffer (without DTT). The products were separated by SDS–PAGE, visualized by Coomassie stain and quantified by ImageLab (Bio-Rad).
# 1 Supplementa ry Figure 3:
# 3 Supplementary Figure 3. In vitro U BC12~N EDD8 thio ester forming assay.N EDD8,
# 4 NEDD8 E1 (APP -BP 1/Uba3) and UBC12 were purchased from Boston Biochem. 10μ M
# 5 NEDD8, 25nM N EDD8 E1,and 2μ M UBC12 were incubated in 50mM Tris-HCl (pH 7.4), 5mM
# 6 M gC l 2, 0.5mM DTT, and 0.1mg/ml BSA, with indicated compounds at 25℃ for 10min.
# 7 Reactions were initiated by addition o f 2mM ATP (or dH2O) and w ere run for 5min at 25℃ .
# 8 Reaction mixtures were t hen added with 1M DTT (or dH 2O) and kept on ice for 1min followed
# 9 by addition of SDS Loading buffer (without DTT). The products were s eparated b y SDS-PAGE,
# 10 visualized by Coomassie stain and quantified using an ImageLab imager ( Bio-Rad). […]
# neddylation of cullin 3 = experiment: Western blotting of neddylated and un-neddylated cullin 3 in cells; format: cell-based; conditions: THLE2 liver cells
# Source text: as §1
# KYSE140 = experiment: Cell viability, WST assay, KYSE140; format: cell-based; conditions: Homo sapiens, KYSE-140, 96 h; KYSE140, t = 4 d
# Procedure: as §2, §3, §4, §5
# DCN5 = biological target: T2, DCN5 (Homo sapiens, UniProt Q9BTE7); experiment: Label-free BLI assay, DCN5; format: binding; conditions: concentrations up to 10 µM
# T2 construct: DCN2 (residues 62–259), DCN3 (residues 86–304), DCN4 (residues 102–292) and DCN5 (residues 47–237); His6-TEV (N, cleaved yes); made in house; host or cells: Rosetta2 cells (E. coli)
# T2 sequence (Q9BTE7 47-237): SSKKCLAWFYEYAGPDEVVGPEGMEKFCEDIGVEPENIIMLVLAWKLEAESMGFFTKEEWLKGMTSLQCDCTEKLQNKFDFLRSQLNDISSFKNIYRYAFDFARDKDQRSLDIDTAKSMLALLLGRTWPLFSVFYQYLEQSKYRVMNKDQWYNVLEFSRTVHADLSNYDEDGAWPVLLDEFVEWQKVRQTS
# NRF2 mRNA = experiment: qRT-PCR of NRF2 mRNA in THLE2 cells; format: cell-based; conditions: THLE2, 10 µM
# Source text: (§6) Total RNA in treated cells was isolated with the RNeasy Mini Kit (Qiagen, Germantown, MD). RNA was reverse transcribed into complementary DNA (cDNA) using high capacity RNA-to-cDNA kit (Applied Biosystems, Carlsbad, California). […] GAPDH was used as an internal reference. […] Error bars correspond to SD from three independent experiments.
# [3] = Equilibrium aqueous solubility, small-scale shake-flask method; conditions: for solubility at 24 h: thermodynamic from solid
# Procedure: The equilibrium aqueous solubility of an individual compound at different pH values was determined with a small-scale shake-flask method in Eppendorf tubes. Compounds were added as powder in excess to Britton-Robinson buffer at pH 2.0 or phosphate buffer at pH 7.4 until heterogeneous suspensions were obtained. Suspensions containing excessive compound powder were sonicated in a water bath for 30 min followed by incubation at room temperature with shaking for 24 h to achieve thermodynamic equilibrium. […] Supernatants obtained were filtered using Millipore MultiScreen filter plates equipped with 0.45 µm membranes. Compound concentrations in the saturated solutions were measured by UV spectroscopy at the maximum absorption wavelengths of each compound that were pre-determined by a spectrum scan.
# NQO1 and HO1 mRNA = experiment: qRT-PCR of NRF2-regulated genes in THLE2 cells; format: cell-based; conditions: THLE2, 10 µM
# Source text: as §6
# DCN3 = biological target: T3, DCN3 (Homo sapiens, UniProt Q8IWE4); experiment: Label-free BLI assay, DCN3; format: binding; conditions: concentrations up to 10 µM
# T3 construct: DCN2 (residues 62–259), DCN3 (residues 86–304), DCN4 (residues 102–292) and DCN5 (residues 47–237); His6-TEV (N, cleaved yes); made in house; host or cells: Rosetta2 cells (E. coli)
# T3 sequence (Q8IWE4 86-304): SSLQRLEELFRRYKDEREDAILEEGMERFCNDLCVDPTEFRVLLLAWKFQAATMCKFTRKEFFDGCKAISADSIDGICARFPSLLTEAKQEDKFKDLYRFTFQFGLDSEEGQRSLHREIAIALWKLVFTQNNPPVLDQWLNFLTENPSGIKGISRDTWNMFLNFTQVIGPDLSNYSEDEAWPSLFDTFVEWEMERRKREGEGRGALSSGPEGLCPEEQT
# DCN4 = biological target: T4, DCN4 (Homo sapiens, UniProt Q92564); experiment: Label-free BLI assay, DCN4; format: binding; conditions: concentrations up to 10 µM
# T4 construct: DCN2 (residues 62–259), DCN3 (residues 86–304), DCN4 (residues 102–292) and DCN5 (residues 47–237); His6-TEV (N, cleaved yes); made in house; host or cells: Rosetta2 cells (E. coli)
# T4 sequence (Q92564 102-292): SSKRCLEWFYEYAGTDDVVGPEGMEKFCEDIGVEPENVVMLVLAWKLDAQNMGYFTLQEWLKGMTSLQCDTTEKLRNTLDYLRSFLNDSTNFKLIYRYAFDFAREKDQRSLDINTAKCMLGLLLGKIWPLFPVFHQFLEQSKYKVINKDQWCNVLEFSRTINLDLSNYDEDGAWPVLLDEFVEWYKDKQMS
compound,measurement,setting,value
NS(=O)(=O)OC[C@@H]1C[C@@H](n2ccc3c(N[C@H]4CCc5ccccc54)ncnc32)C[C@@H]1O [MLN4924],"protein levels of p21, Bim and CDT1 (in words)","p21, Bim, CDT1",induces accumulation
same,EC50,KYSE70,356 nM
same,"effect on neddylation of cullin 1, time course (in words)",[1],effective
same,concentrations that effectively suppress neddylation of all cullins examined,"[1]; all cullins examined, panel of six cell lines, 24 h",10 to 300 nM
same,NRF2 protein level (in words),NRF2,induces accumulation; also recorded: much stronger upregulation
same,EC50,THLE2,53.4 nM
same,IC50,"[2]; Homo sapiens, THLE-2, 6 different cell lines, read-out: IC50, inhibition of cell viability",50 to 350 nM
same,"inhibition of UBC12 neddylation (E1 activity), in words",NEDD8 E1 (APP-BP1/Uba3),effectively inhibits
same,"effect on neddylation of cullin 3, time course (in words)","neddylation of cullin 3; up to 24 h, MLN4924 0.3 µM",effective
same,EC50,KYSE140,65.4 nM
CCC(=O)N[C@@H](Cc1nc2ccc(C(C)C)cc2s1)C(=O)N[C@H](CNC(=O)CCN1CCOCC1)C1CCCCC1 [DI-591],"protein levels of p21, Bim and CDT1 (in words)","p21, Bim, CDT1",no or minimal effect
same,binding to DCN5 (in words),DCN5,no appreciable binding
same,mRNA level of NRF2 (in words),NRF2 mRNA,no effect
same,aqueous solubility (in words),[3],excellent
same,solubility at 24 h,"[3]; Britton-Robinson buffer, pH 2, aqueous buffer",> 20 mM
same,solubility at 24 h,"[3]; Britton-Robinson buffer, pH 2.02, aqueous buffer",> 20 mM
same,solubility at 24 h,"[3]; phosphate buffer, pH 7.4, aqueous buffer",> 20 mM
same,"effect on neddylation of cullin 1, time course (in words)",[1],no effect
same,NRF2 protein level (in words),NRF2,dose dependently increases
same,mRNA levels of NQO1 and HO1 (in words),NQO1 and HO1 mRNA,robustly increases
same,binding to DCN3 (in words),DCN3,no appreciable binding
same,cytotoxicity (in words),[2]; DI-591 at concentrations up to 20 µM,no significant cytotoxicity
same,binding to DCN4 (in words),DCN4,no appreciable binding
same,"inhibition of UBC12 neddylation (E1 activity), in words",NEDD8 E1 (APP-BP1/Uba3),no such effect
same,time to complete depletion of neddylated cullin 3,neddylation of cullin 3; DI-591 at 10 µM,≤ 5 min
